Measurements as given in publication PMC11374673, “Discovery of isoquinoline sulfonamides as allosteric gyrase inhibitors with activity against fluoroquinolone-resistant bacteria” (Nature Chemistry, 2024).
pIC50: −log10 of the molar value. Values after ≈ are worked out from the molar mass of the structure shown. Values joined by “and” are separate entries in the source; they are usually repeats but may differ in a detail not shown here. Identical values can stand only once. Like-named read-outs stand apart in the source and are kept apart here. Values belong to the compound of their own block, whether it stands above or below them.

Key:
[1] = test system: HepG2; assay: Cytotoxicity assay (MTT); format: cell-based, human; settings: for pIC50: Homo sapiens, HepG2, 24 h, MTT, 24 h
Experimental: (§1) HepG2 (ATCC HB-8065) and HEK293T (ATCC CRL-3216) cell lines were cultured at 37 °C and 7% CO2 in Dulbecco’s modified Eagle medium (Sigma-Aldrich, D6546) with GlutaMax, penicillin (100 µg ml^−1), streptomycin (100 µg ml^−1) and 10% fetal calf serum. Cells were passaged twice a week by first detaching using 0.05% trypsin in phosphate-buffered saline (PBS) and then diluting to appropriate confluence. Compound cytotoxicity was evaluated using the standard (3-(4,5-dimethylthiazol-2-yl)-2,5-diphenyltetrazolium bromide (MTT) assay protocol (MTT assay protocol for cell viability and proliferation, Merck) with slight changes. HepG2 and HEK293T cells were seeded at a density of 1.5 × 10^4 cells per well in a clear 96-well tissue culture treated plate in a final volume of 100 µl in Dulbecco’s modified Eagle medium, supplemented with fetal bovine serum (1%), GlutaMax and penicillin/streptomycin. Cells were incubated for 24 h at 37 °C, 7% CO2 to allow cells to attach to the plates. […] Incubation was done for 24 h at 37 °C, 7% CO2. After the incubation, MTT was added to each well at a final concentration of 0.40 mg ml^−1. The plates were then incubated for 2 h at 37 °C, 7% CO2. Medium was carefully removed via suction, and purple formazan crystals were resuspended in 100 µl DMSO. Absorbance was read at 570 nm using a Clariostar plate reader with MARS (V4.20). The data were then analysed with GraphPad Prism software. IC50 values were calculated using non-linear fitted curve with variable slope settings, with values adjusted for background (plotted absorbance (ABS)sample = (ABSsample – ABSbackground) / (ABSvehicle – ABSbackground)). Technical triplicates for each condition were used, along with biological duplicates.

[2] = test system: HEK293T; assay: Cytotoxicity assay (MTT); format: cell-based, human; settings: for MTT data (raw readout): HEK293T; for pIC50: 24 h, MTT
Experimental: as §1

[3] = test system: E. coli W3110; assay: MIC by broth microdilution; format: cell-based, Escherichia coli; settings: for MIC: broth microdilution, read-out: MIC E. coli W3110; for antimicrobial activity: relative to parent compound
Experimental: (§2) MIC was determined by broth microdilution. Single-colony cultures were grown to exponential phase (OD600 of 0.5) aerobically at 37 °C. In case of strains from the Keio collection, 50 µg ml^−1 kanamycin was supplemented to the media to ascertain a homogeneous population. The bacterial suspensions were diluted 100-fold in CAMHB and 50 µl was added to a twofold serial dilution series of test compounds (50 µl per well) in polypropylene 96-well microtitre plates to reach a volume of 100 µl. The plates were sealed with breathable membranes and incubated overnight at 37 °C with constant shaking (600 r.p.m.).

[4] = test system: K. pneumoniae ATCC 29665; assay: MIC by broth microdilution; format: cell-based, Klebsiella pneumoniae; settings: read-out: MIC K. pneumoniae ATCC 29665
Experimental: as §2

[5] = HepG2, 0.023 uM, experiment n = 1, technical triplicates
[6] = HepG2, 0.023 uM, experiment n = 2, technical triplicates
[7] = HepG2, 0.068 uM, experiment n = 1, technical triplicates
[8] = HepG2, 0.068 uM, experiment n = 2, technical triplicates
[9] = HepG2, 0.21 uM, experiment n = 1, technical triplicates
[10] = HepG2, 0.21 uM, experiment n = 2, technical triplicates
[11] = HepG2, 0.62 uM, experiment n = 1, technical triplicates
[12] = HepG2, 0.62 uM, experiment n = 2, technical triplicates
[13] = HepG2, 1.85 uM, experiment n = 1, technical triplicates
[14] = HepG2, 1.85 uM, experiment n = 2, technical triplicates
[15] = HepG2, 5.6 uM, experiment n = 1, technical triplicates
[16] = HepG2, 5.6 uM, experiment n = 2, technical triplicates
[17] = HepG2, 16.7 uM, experiment n = 1, technical triplicates
[18] = 0.023 uM, experiment n = 1, technical triplicates
[19] = 0.023 uM, experiment n = 2, technical triplicates
[20] = 0.068 uM, experiment n = 1, technical triplicates
[21] = 0.068 uM, experiment n = 2, technical triplicates
[22] = 0.21 uM, experiment n = 1, technical triplicates
[23] = 0.21 uM, experiment n = 2, technical triplicates
[24] = 0.62 uM, experiment n = 1, technical triplicates
[25] = 0.62 uM, experiment n = 2, technical triplicates
[26] = 1.85 uM, experiment n = 1, technical triplicates
[27] = 1.85 uM, experiment n = 2, technical triplicates
[28] = 5.6 uM, experiment n = 1, technical triplicates
[29] = 5.6 uM, experiment n = 2, technical triplicates
[30] = 16.7 uM, experiment n = 1, technical triplicates
[31] = 16.7 uM, experiment n = 2, technical triplicates
[32] = 50 uM, experiment n = 1, technical triplicates
[33] = 50 uM, experiment n = 2, technical triplicates
[34] = Klebsiella pneumoniae, ATCC29665, broth microdilution

SMILES: O=C(NCCNCc1ccc(-c2cccnc2)cc1)c1cccc2cnccc12 [Compound 91]
- MIC ([3]; Escherichia coli, W3110, WT): > 50 µM
- MIC ([3]; WT): >50 µM
- antimicrobial activity [3]: loss of activity
- MIC [4, 34]: > 50 µM
- MIC ([4]; broth microdilution): >50 µM

SMILES: O=C(NCCNS(=O)(=O)c1cccc2cnccc12)c1ccc(-c2cccnc2)cc1 [Compound 93]
- MIC ([3]; Escherichia coli, W3110, WT): > 50 µM
- MIC ([3]; WT): >50 µM
- antimicrobial activity [3]: abolished all activity
- MIC [4, 34]: > 50 µM
- MIC ([4]; broth microdilution): >50 µM

SMILES: O=S(=O)(NCCOCc1ccc(-c2cccnc2)cc1)c1cccc2cnccc12 [Compound 94]
- MIC ([3]; Escherichia coli, W3110, WT): > 50 µM
- MIC ([3]; WT): >50 µM
- antimicrobial activity [3]: abolished all activity
- MIC [4, 34]: > 50 µM
- MIC ([4]; broth microdilution): >50 µM

SMILES: CN(CCNS(=O)(=O)c1cccc2cnccc12)Cc1ccc(-c2cccnc2)cc1 [Compound 95]
- MIC ([3]; Escherichia coli, W3110, WT): > 50 µM
- MIC ([3]; WT): >50 µM
- antimicrobial activity [3]: abolished all activity
- MIC [4, 34]: 50 µM (≈ 21.6 µg/mL)

Compounds with a lower MIC ([3]; Escherichia coli, W3110, WT), results first:

- MIC ([3]; Escherichia coli, W3110, WT): 6.25 µM (≈ 2.61 µg/mL)
- MIC [4, 34]: 12.5 µM (≈ 5.22 µg/mL)
SMILES: O=S(=O)(NCCNCc1ccc(-c2ccccc2)cc1)c1cccc2cnccc12 [Compound 56]
- MTT data (raw readout) [1, 5]: 0.559 and 0.503 and 0.453
- MTT data (raw readout) [1, 6]: 0.586 and 0.547 and 0.578
- MTT data (raw readout) [1, 7]: 0.490 and 0.488 and 0.494
- MTT data (raw readout) [1, 8]: 0.579 and 0.616 and 0.615
- MTT data (raw readout) [1, 9]: 0.573 and 0.504 and 0.507
- MTT data (raw readout) [1, 10]: 0.577 and 0.574 and 0.618
- MTT data (raw readout) [1, 11]: 0.495 and 0.510 and 0.493
- MTT data (raw readout) [1, 12]: 0.602 and 0.579 and 0.597
- MTT data (raw readout) [1, 13]: 0.533 and 0.518 and 0.529
- MTT data (raw readout) [1, 14]: 0.634 and 0.597 and 0.638
- MTT data (raw readout) [1, 15]: 0.550 and 0.534 and 0.503
- MTT data (raw readout) [1, 16]: 0.619 and 0.618 and 0.638
- MTT data (raw readout) [1, 17]: 0.186 and 0.116 and 0.134
- MTT data (raw readout) ([1]; HepG2, 50 uM, experiment n = 1, technical triplicates): 0.0047 and 0.0027
- pIC50 [1]: 4.78
- MTT data (raw readout) [2, 18]: 0.760 and 0.712 and 0.710
- MTT data (raw readout) [2, 19]: 0.814 and 0.790 and 0.847
- MTT data (raw readout) [2, 20]: 0.777 and 0.824 and 0.787
- MTT data (raw readout) [2, 21]: 0.796 and 0.816 and 0.794
- MTT data (raw readout) [2, 22]: 0.818 and 0.751 and 0.739
- MTT data (raw readout) [2, 23]: 0.813 and 0.836 and 0.832
- MTT data (raw readout) [2, 24]: 0.783 and 0.761 and 0.744
- MTT data (raw readout) [2, 25]: 0.785 and 0.778 and 0.750
- MTT data (raw readout) [2, 26]: 0.680 and 0.683 and 0.658
- MTT data (raw readout) [2, 27]: 0.720 and 0.749 and 0.788
- MTT data (raw readout) [2, 28]: 0.523 and 0.537 and 0.570
- MTT data (raw readout) [2, 29]: 0.582 and 0.590 and 0.593
- MTT data (raw readout) [2, 30]: 0.243 and 0.263 and 0.287
- MTT data (raw readout) [2, 31]: 0.271 and 0.304 and 0.282
- MTT data (raw readout) [2, 32]: 0.032 and 0.041 and 0.051
- MTT data (raw readout) [2, 33]: 0.036 and 0.023 and 0.035
- pIC50 ([2]; Homo sapiens, HEK-293T): 5.00
- pIC50 [2]: 4.98
- antimicrobial activity [3]: equally potent

- MIC ([3]; Escherichia coli, W3110, WT): 6.25 µM (≈ 2.65 µg/mL)
- MIC [4, 34]: 12.5 µM (≈ 5.29 µg/mL)
SMILES: O=S(=O)(NCCNCc1ccc(-c2ccsc2)cc1)c1cccc2cnccc12 [Compound 57]
- MTT data (raw readout) [1, 5]: 0.512 and 0.502 and 0.507
- MTT data (raw readout) [1, 6]: 0.479 and 0.518 and 0.476
- MTT data (raw readout) [1, 7]: 0.477 and 0.445 and 0.510
- MTT data (raw readout) [1, 8]: 0.538 and 0.507 and 0.588
- MTT data (raw readout) [1, 9]: 0.485 and 0.473 and 0.497
- MTT data (raw readout) [1, 10]: 0.529 and 0.523 and 0.494
- MTT data (raw readout) [1, 11]: 0.426 and 0.445 and 0.470
- MTT data (raw readout) [1, 12]: 0.529 and 0.507 and 0.472
- MTT data (raw readout) [1, 13]: 0.360 and 0.379 and 0.361
- MTT data (raw readout) [1, 14]: 0.404 and 0.395 and 0.409
- MTT data (raw readout) [1, 15]: 0.268 and 0.278 and 0.299
- MTT data (raw readout) [1, 16]: 0.322 and 0.303 and 0.267
- MTT data (raw readout) [1, 17]: 0.206 and 0.230 and 0.232
- MTT data (raw readout) ([1]; HepG2, 16.7 uM, experiment n = 2, technical triplicates): 0.246 and 0.259
- MTT data (raw readout) ([1]; HepG2, 50 uM, experiment n = 2, technical triplicates): 0.039 and 0.047 and 0.038
- pIC50 [1]: 5.09
- MTT data (raw readout) [2, 18]: 0.793 and 0.726 and 0.620
- MTT data (raw readout) [2, 19]: 0.807 and 0.803 and 0.611
- MTT data (raw readout) [2, 20]: 0.732 and 0.738 and 0.650
- MTT data (raw readout) [2, 21]: 0.765 and 0.761 and 0.569
- MTT data (raw readout) [2, 22]: 0.722 and 0.771 and 0.628
- MTT data (raw readout) [2, 23]: 0.825 and 0.737 and 0.605
- MTT data (raw readout) [2, 24]: 0.689 and 0.691 and 0.563
- MTT data (raw readout) [2, 25]: 0.748 and 0.715 and 0.545
- MTT data (raw readout) [2, 26]: 0.625 and 0.610 and 0.502
- MTT data (raw readout) [2, 27]: 0.678 and 0.632 and 0.506
- MTT data (raw readout) [2, 28]: 0.490 and 0.501 and 0.402
- MTT data (raw readout) [2, 29]: 0.448 and 0.475 and 0.377
- MTT data (raw readout) [2, 30]: 0.253 and 0.231 and 0.202
- MTT data (raw readout) [2, 31]: 0.296 and 0.267 and 0.213
- MTT data (raw readout) [2, 32]: 0.051 and 0.066 and 0.048
- MTT data (raw readout) [2, 33]: 0.078 and 0.094 and 0.056
- pIC50 ([2]; Homo sapiens, HEK-293T): 5.18
- antimicrobial activity [3]: equally potent

- MIC ([3]; Escherichia coli, W3110, WT): 25 µM (≈ 10.9 µg/mL)
- MIC [4, 34]: 50 µM (≈ 21.8 µg/mL)
SMILES: O=S(=O)(NCCNCc1ccc(-c2cccnc2)c(F)c1)c1cccc2cnccc12 [Compound 87]

- MIC ([3]; Escherichia coli, W3110, WT): 12.5 µM (≈ 5.44 µg/mL)
- MIC [4, 34]: 25 µM (≈ 10.9 µg/mL)
SMILES: O=S(=O)(NCCNCc1ccc(-c2ccccc2)c(F)c1)c1cccc2cnccc12 [Compound 88]

- MIC ([3]; Escherichia coli, W3110, WT): 12.5 µM (≈ 5.67 µg/mL)
- MIC [4, 34]: 12.5 µM (≈ 5.67 µg/mL)
SMILES: O=S(=O)(NCCNCc1ccc(-c2ccc(F)cc2)c(F)c1)c1cccc2cnccc12 [Compound 90]
